The text below walks through data of patent US11845730B2, “1,3-substituted cyclobutyl derivatives and uses thereof” (Novartis AG, priority 2021, dated 2023).

Structures can show the parent of a compound that is named as a salt.

human TRPV1, sequence (Q8NER1 whole entry): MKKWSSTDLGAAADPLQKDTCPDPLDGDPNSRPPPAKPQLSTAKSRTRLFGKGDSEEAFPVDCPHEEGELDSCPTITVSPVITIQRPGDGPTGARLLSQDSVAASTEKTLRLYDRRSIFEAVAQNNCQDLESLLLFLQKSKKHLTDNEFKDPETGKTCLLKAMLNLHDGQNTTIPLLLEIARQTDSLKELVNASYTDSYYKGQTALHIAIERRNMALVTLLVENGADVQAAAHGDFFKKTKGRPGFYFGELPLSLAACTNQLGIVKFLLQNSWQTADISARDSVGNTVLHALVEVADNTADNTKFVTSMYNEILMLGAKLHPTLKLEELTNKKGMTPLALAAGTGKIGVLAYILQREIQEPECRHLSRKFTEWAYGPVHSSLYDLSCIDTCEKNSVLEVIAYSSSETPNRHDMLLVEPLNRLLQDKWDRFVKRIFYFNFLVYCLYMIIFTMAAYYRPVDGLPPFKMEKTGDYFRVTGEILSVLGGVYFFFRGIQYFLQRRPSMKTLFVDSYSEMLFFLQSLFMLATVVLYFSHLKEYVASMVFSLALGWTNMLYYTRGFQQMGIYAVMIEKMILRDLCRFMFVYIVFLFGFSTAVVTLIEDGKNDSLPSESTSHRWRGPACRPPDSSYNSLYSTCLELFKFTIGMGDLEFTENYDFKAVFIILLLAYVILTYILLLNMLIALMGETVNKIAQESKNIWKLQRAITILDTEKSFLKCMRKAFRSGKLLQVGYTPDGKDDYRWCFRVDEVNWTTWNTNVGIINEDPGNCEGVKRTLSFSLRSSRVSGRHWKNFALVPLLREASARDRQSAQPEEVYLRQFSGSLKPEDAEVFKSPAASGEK

This experiment has as its target human TRPV1 (Homo sapiens (Human), UniProt Q8NER1). Particulars: read-out: IC50 (μM), antagonist effect against human TRPV1; CHO cells expressing human TrpV1; stimulated with 2.5 μM NADA (EC80); mean of at least three independent experiments.
In the case of `Nc1cc(F)c(CN[C@H]2C[C@H](Oc3ccc(F)c(C(F)(F)F)c3)C2)c2ccncc12` [Example 12, 6-fluoro-5-((((1r,3r)-3-(4-fluoro-3-(trifluoromethyl)phenoxy)cyclobutyl)amino)methyl)isoquinolin-8-amine], the IC50 was found to be 0.0578 µM.
Take `Fc1ccc2cnccc2c1CN[C@H]1C[C@H](Oc2ccc(C(F)F)nc2)C1` [Example 110, (1r,3r)-3-((6-(difluoromethyl)pyridin-3-yl)oxy)-N-((6-fluoroisoquinolin-5-yl)methyl)cyclobutan-1-amine]: the IC50 worked out at 1.38 µM.
For `Fc1ccc2cnccc2c1CN[C@H]1C[C@H](Oc2nc3ccccc3s2)C1` [Example 96, (1r,3r)-3-(benzo[d]thiazol-2-yloxy)-N-((6-fluoroisoquinolin-5-yl)methyl)cyclobutan-1-amine, HCl] the value was 0.747 µM.
Then `Fc1cc(O[C@H]2C[C@H](NCc3c(F)ccc4cnccc34)C2)ccc1C(F)F` [Example 101, (1r,3r)-3-(4-(difluoromethyl)-3-fluorophenoxy)-N-((6-fluoroisoquinolin-5-yl)methyl)cyclobutan-1-amine], with 0.0147 µM.
As to `OC(CC(F)(F)F)c1cc(F)c(CN[C@H]2C[C@H](Oc3ccc(F)c(C(F)(F)F)c3)C2)c2ccncc12` (stereo partly shown) [Example 11, 3,3,3-trifluoro-1-(6-fluoro-5-((((1r,3r)-3-(4-fluoro-3-(trifluoromethyl)phenoxy)cyclobutyl)amino)methyl)isoquinolin-8-yl)propan-1-ol], the IC50 was 0.395 µM.
As for `Cc1cc(O[C@H]2C[C@H](NCc3c(F)ccc4cnccc34)C2)cc(C(F)(F)F)n1` [Example 106, (1r,3r)-N-((6-fluoroisoquinolin-5-yl)methyl)-3-((2-methyl-6-(trifluoromethyl)pyridin-4-yl)oxy)cyclobutan-1-amine], the concentration for half-maximal inhibition (IC50) was determined as 1.65 µM.
With `Fc1ccc2cnccc2c1CN[C@H]1C[C@H](Oc2cccc(C3CC3)c2)C1` [Example 88, (1r,3r)-3-(3-cyclopropylphenoxy)-N-((6-fluoroisoquinolin-5-yl)methyl)cyclobutan-1-amine, HCl], the IC50 was 0.0952 µM.
With `Fc1ccc2cnccc2c1CN[C@H]1C[C@H](Oc2cncc(C(F)(F)F)c2)C1` [Example 95, (1r,3r)-N-((6-fluoroisoquinolin-5-yl)methyl)-3-((5-(trifluoromethyl)pyridin-3-yl)oxy)cyclobutan-1-amine, HCl], the IC50 was determined as 0.323 µM.
Turning to `Oc1ccc(CN[C@H]2C[C@H](Oc3ccc(F)c(C(F)(F)F)c3)C2)c2ccncc12` [Example 23, 5-((((1r,3r)-3-(4-fluoro-3-(trifluoromethyl)phenoxy)cyclobutyl)amino)methyl)isoquinolin-8-ol, HCl], the IC50 came to 0.232 µM.
Then `OCc1cc(F)c(CN[C@H]2C[C@H](Oc3ccnc(C(F)(F)F)c3)C2)c2ccncc12` [Example 90, (6-fluoro-5-((((1r,3r)-3-((2-(trifluoromethyl)pyridin-4-yl)oxy)cyclobutyl)amino)methyl)isoquinolin-8-yl)methanol], with 0.874 µM; and `CCOC(=O)c1ccc(O[C@H]2C[C@H](NCc3c(F)ccc4cnccc34)C2)cc1` [Example 80, ethyl 4-((1r,3r)-3-(((6-fluoroisoquinolin-5-yl)methyl)amino)cyclobutoxy)benzoate], with 0.98 µM.
Turning to `CC(=O)NCC(O)c1cc(F)c(CN[C@H]2C[C@H](Oc3ccc(F)c(C(F)(F)F)c3)C2)c2ccncc12` (stereo partly shown) [Example 70, N-(2-(6-fluoro-5-((((1r,3r)-3-(4-fluoro-3-(trifluoromethyl)phenoxy)cyclobutyl)amino)methyl)isoquinolin-8-yl)-2-hydroxyethyl)acetamide], the IC50 worked out at 0.402 µM.
For `Fc1cc(O[C@H]2C[C@H](NCc3c(F)ccc4cnccc34)C2)ccc1OC(F)F` [Example 51, (1r,3r)-3-(4-(difluoromethoxy)-3-fluorophenoxy)-N-((6-fluoroisoquinolin-5-yl)methyl)cyclobutan-1-amine], the IC50 turned out to be 0.117 µM.
Turning to `Fc1ccc2cnccc2c1CN[C@H]1C[C@H](Oc2ccc(S(F)(F)(F)(F)F)cc2)C1` [Example 83, (1r,3r)-N-((6-fluoroisoquinolin-5-yl)methyl)-3-(4-(pentafluoro-λ^6-sulfaneyl)phenoxy)cyclobutan-1-amine, HCl], the IC50 was 0.207 µM.
In the case of `Fc1ccc2cnccc2c1CN[C@H]1C[C@H](Oc2ccc(C3CC3)cc2)C1` [Example 85, (1r,3r)-3-(4-cyclopropylphenoxy)-N-((6-fluoroisoquinolin-5-yl)methyl)cyclobutan-1-amine, HCl], the IC50 is 0.155 µM.
As to `Nc1nccc2c(CN[C@H]3C[C@H](Oc4ccc(F)c(C(F)(F)F)c4)C3)cccc12` [Example 109, 5-((((1r,3r)-3-(4-fluoro-3-(trifluoromethyl)phenoxy)cyclobutyl)amino)methyl)isoquinolin-1-amine], the half-inhibitory concentration (IC50) amounted to 1.46 µM.
For `CS(=O)(=O)NCC(O)c1cc(F)c(CN[C@H]2C[C@H](Oc3ccc(F)c(C(F)(F)F)c3)C2)c2ccncc12` (stereo partly shown) [Example 66, N-(2-(6-fluoro-5-((((1r,3r)-3-(4-fluoro-3-(trifluoromethyl)phenoxy)cyclobutyl)amino)methyl)isoquinolin-8-yl)-2-hydroxyethyl)methanesulfonamide] the value was 1.11 µM.
Regarding `Fc1ccc(CO[C@H]2C[C@H](NCc3c(F)ccc4cnccc34)C2)cc1F` [Example 78, (1r,3r)-3-((3,4-difluorobenzyl)oxy)-N-((6-fluoroisoquinolin-5-yl)methyl)cyclobutan-1-amine], the IC50 came out at 0.77 µM.
For `Cc1c(F)cc(O[C@H]2C[C@H](NCc3c(F)cc(CO)c4cnccc34)C2)cc1F` [Example 53, (5-((((1r,3r)-3-(3,5-difluoro-4-methylphenoxy)cyclobutyl)amino)methyl)-6-fluoroisoquinolin-8-yl)methanol] the value was 0.0769 µM; for `C[C@]1(NCc2c(F)ccc3cnccc23)C[C@H](Oc2ccc(F)c(C(F)(F)F)c2)C1` [Example 68 trans, (1r,3r)-3-(4-fluoro-3-(trifluoromethyl)phenoxy)-N-((6-fluoroisoquinolin-5-yl)methyl)-1-methylcyclobutan-1-amine], 0.0129 µM.
`Fc1cc(O[C@H]2C[C@H](NCc3c(F)ccc4cnccc34)C2)ccc1OC(F)(F)F` [Example 93, (1r,3r)-3-(3-fluoro-4-(trifluoromethoxy)phenoxy)-N-((6-fluoroisoquinolin-5-yl)methyl)cyclobutan-1-amine, HCl]: the IC50 amounted to 0.0826 µM.
For `NCC(O)c1cc(F)c(CN[C@H]2C[C@H](Oc3ccc(F)c(C(F)(F)F)c3)C2)c2ccncc12` (stereo partly shown) [Example 104, 2-amino-1-(6-fluoro-5-((((1r,3r)-3-(4-fluoro-3-(trifluoromethyl)phenoxy)cyclobutyl)amino)methyl)isoquinolin-8-yl)ethan-1-ol] the value was 2.15 µM.
Then `CCOC(=O)c1cc(O[C@H]2C[C@H](NCc3c(F)ccc4cnccc34)C2)ccc1C(F)(F)F` [Example 60, ethyl 5-((1r,3r)-3-(((6-fluoroisoquinolin-5-yl)methyl)amino)cyclobutoxy)-2-(trifluoromethyl)benzoate], with 0.32 µM; and `Cc1ccc2cnccc2c1CN[C@H]1C[C@H](Oc2ccc(C(F)(F)F)nc2)C1` [Example 2, (1r,3r)-N-((6-methylisoquinolin-5-yl)methyl)-3-((6-(trifluoromethyl)pyridin-3-yl)oxy)cyclobutan-1-amine, HCl], with 0.711 µM; and `CC(C)c1cc(O[C@H]2C[C@H](NCc3cccc4cnccc34)C2)ccc1F` [Example 43, (1r,3r)-3-(4-fluoro-3-isopropylphenoxy)-N-(isoquinolin-5-ylmethyl)cyclobutan-1-amine, HCl], with 0.528 µM.
For `Fc1ccc2cnccc2c1CN[C@H]1C[C@H](Oc2ccc3c(c2)OC(F)(F)O3)C1` [Example 46, (1r,3r)-3-((2,2-difluorobenzo[d][1,3]dioxol-5-yl)oxy)-N-((6-fluoroisoquinolin-5-yl)methyl)cyclobutan-1-amine, HCl] the value was 0.0402 µM; for `OCCc1cc(F)c(CN[C@H]2C[C@H](Oc3ccc(F)c(C(F)(F)F)c3)C2)c2ccncc12` [Example 10, 2-(6-fluoro-5-((((1r,3r)-3-(4-fluoro-3-(trifluoromethyl)phenoxy)cyclobutyl)amino)methyl)isoquinolin-8-yl)ethan-1-ol, HCl], 0.166 µM.
Turning to `OC[C@@H](O)c1cc(F)c(CN[C@H]2C[C@H](Oc3ccc(F)c(C(F)(F)F)c3)C2)c2ccncc12` (single isomer, unassigned; peak 1) [Example 7 peak 1], the IC50 is 0.00062 µM.
For the molecule `Fc1ccc(O[C@H]2C[C@H](NCc3c(F)ccc4cnccc34)C2)c(F)c1` [Example 26, (1r,3r)-3-(2,4-difluorophenoxy)-N-((6-fluoroisoquinolin-5-yl)methyl)cyclobutan-1-amine], the IC50 worked out at 0.108 µM.
Consider `Fc1ccc(O[C@H]2C[C@H](NCc3c(F)ccc4cncnc34)C2)cc1C(F)(F)F` [Example 102, (1r,3r)-3-(4-fluoro-3-(trifluoromethyl)phenoxy)-N-((7-fluoroquinazolin-8-yl)methyl)cyclobutan-1-amine], for which the IC50 was 0.0603 µM.
In the case of `Cc1c(F)cc(O[C@H]2C[C@H](NCc3c(F)ccc4cnccc34)C2)cc1F` [Example 52, (1r,3r)-3-(3,5-difluoro-4-methylphenoxy)-N-((6-fluoroisoquinolin-5-yl)methyl)cyclobutan-1-amine], the IC50 amounted to 0.0271 µM.
Turning to `N#Cc1ccc(O[C@H]2C[C@H](NCc3c(F)ccc4cnccc34)C2)c(F)n1` [Example 75, 6-fluoro-5-((1r,3r)-3-(((6-fluoroisoquinolin-5-yl)methyl)amino)cyclobutoxy)picolinonitrile, HCl], the IC50 worked out at 0.269 µM.
For `Fc1ccc2cnccc2c1CN[C@H]1C[C@H](Oc2ccc(C(F)(F)F)cc2)C1` [Example 76, (1r,3r)-N-((6-fluoroisoquinolin-5-yl)methyl)-3-(4-(trifluoromethyl)phenoxy)cyclobutan-1-amine, HCl], the IC50 is 0.0277 µM.
Then `FC(F)(F)c1ccc(O[C@H]2C[C@H](NCc3cccc4cnccc34)C2)cn1` [Example 112, (1r,3r)-N-(isoquinolin-5-ylmethyl)-3-((6-(trifluoromethyl)pyridin-3-yl)oxy)cyclobutan-1-amine], with 2.69 µM.
